# Results from patent US4292314A, “Cardioactive 12-dehydrodigoxin-oximes” (Boehringer Mannheim GmbH, priority 1979, dated 1981).
# Where two headings read alike, the source gives them in different places.
# Legend:
# [1] = test system: cats with pentobarbital-induced heart insufficiency; assay: animal or person; settings: for ED (1.5 mmHg/sec increase) / ED (3.0 mmHg/sec increase): Felis catus, 10 min; for ED (1.5 mmHg/sec increase): read-out: DE1.5; for ED (3.0 mmHg/sec increase): read-out: DE3.0; for quotient of DE3.0 and DE1.5, steepness of the dosage activity line: cats, fractionated injection
# Method: (§1) The pharmacological action of the new compounds according to the present invention was determined by the comparison of 12-dehydrodigoxin oxime (Compound 1 from) and 12-dehydrodigoxin-o-methyloxime (Compound 7 from) with digoxin, which is a known pharmaceutical for the treatment of cardiac insufficiency, using the following experimental procedure:
# (§2) The positive inotropic and cardiotoxic action was tested on cats with pentobarbital-induced heart insufficiency. Increasing dosages were injected at intervals of 10 minutes, so that the total dosage increased in each case by the factor √2. The criterion for the therapeutically relevant, positively inotropic action was the increase of the maximum pressure increase rate by 1.5 or 3.0 mm. Hg/sec (DE1.5 and DE3.0). The quotient from both values is a measure for the steepness of the dosage activity line.
# (§3) The measure for the cardiotoxicity was the dosage at which the first disturbances of the induction of stimulation took place. The point of time of the commencement of arrhythmias as ascertained from the electrocardiogram and the related dosage calculated by interpolation. The quotient from this cardiotoxic dosage and the DE1.5 served as a measure for the therapeutic breadth.
# in vivo = settings: cat, in vivo
# Method: as §1, §2, §3
# [2] = Pharmacokinetic investigations on awake cats, intravenous injection of 3H-marked test compounds; assay type: in vivo, cat; settings: for distribution volume / elimination constant / excretion in urine: awake cats, i.v., digoxin 30 μg./kg., Cpd. 1 and Cpd. 7 100 μg./kg.; for excretion in urine: urine collected for 14 days; for dosage needed to achieve the same plasma concentration, relative to digoxin: from total clearance
# Method: Pharmacokinetic investigations were carried out on awake cats, the test compounds being injected intravenously in the ^3 H-marked form. Over the course of 48 hours, blood samples were taken via an implanted catheter for the determination of the radioactivity in the plasma. The urine was collected for 14 days. The elimination constant was calculated from the decrease of the plasma concentration and the amount excreted in the urine.
# [3] = humans; cited from earlier work
smiles,measurement,setting,value
"CON=C1C[C@H]2[C@@H](CC[C@@H]3C[C@@H](O[C@H]4C[C@H](O)[C@H](O[C@H]5C[C@H](O)[C@H](O[C@H]6C[C@H](O)[C@H](O)[C@@H](C)O6)[C@@H](C)O5)[C@@H](C)O4)CC[C@@]32C)[C@@]2(O)CC[C@H](C3=CC(=O)OC3)[C@@]12C [Compound 7, 12-Dehydrodigoxin--O-methyloxime]",ED (1.5 mmHg/sec increase),[1],0.334 mg/kg
same,ED (3.0 mmHg/sec increase),[1],0.817 mg/kg
same,"quotient of DE3.0 and DE1.5, steepness of the dosage activity line",[1],3.56
same,dosage activity line compared with digoxin,[1]; in words,flatter than in the case of digoxin
same,TD50,in vivo,1.37 mg/kg
same,selectivity ratio,in vivo,4.1
same,distribution volume,[2],1.47 kg⁻¹
same,elimination constant,[2],0.0143 h⁻¹
same,excretion in urine,[2],31 % of dose
same,"dosage needed to achieve the same plasma concentration, relative to digoxin",[2]; cats,13 % of the dosage of digoxin
same,distribution volume compared with digoxin,"[2]; in words, cats",lower distribution volume
same,elimination constant compared with digoxin,"[2]; in words, cats",about equally as great as for digoxin
same,total clearance compared with digoxin,"[2]; in words, cats",lower total clearance
"C[C@H]1O[C@@H](O[C@H]2[C@@H](O)C[C@H](O[C@H]3[C@@H](O)C[C@H](O[C@H]4CC[C@@]5(C)[C@H](CC[C@@H]6[C@@H]5CC(=NO)[C@]5(C)[C@@H](C7=CC(=O)OC7)CC[C@]65O)C4)O[C@@H]3C)O[C@@H]2C)C[C@H](O)[C@@H]1O [Compound 1, 12-Dehydrodigoxin oxime]",ED (1.5 mmHg/sec increase),[1],0.105 mg/kg
same,ED (3.0 mmHg/sec increase),[1],0.236 mg/kg
same,"quotient of DE3.0 and DE1.5, steepness of the dosage activity line",[1],1.98
same,TD50,in vivo,0.51 mg/kg
same,selectivity ratio,in vivo,4.85
same,distribution volume,[2],2.74 kg⁻¹
same,elimination constant,[2],0.0258 h⁻¹
same,excretion in urine,[2],30 % of dose
same,"dosage needed to achieve the same plasma concentration, relative to digoxin",[2]; cats,about 45 % of the dosage of digoxin
same,elimination constant compared with digoxin,"[2]; in words, cats",even greater
C[C@H]1O[C@@H](O[C@H]2[C@@H](O)C[C@H](O[C@H]3[C@@H](O)C[C@H](O[C@H]4CC[C@@]5(C)[C@H](CC[C@@H]6[C@@H]5C[C@@H](O)[C@]5(C)[C@@H](C7=CC(=O)OC7)CC[C@]65O)C4)O[C@@H]3C)O[C@@H]2C)C[C@H](O)[C@@H]1O [digoxin],ED (1.5 mmHg/sec increase),[1],0.12 mg/kg
same,ED (3.0 mmHg/sec increase),[1],0.253 mg/kg
same,"quotient of DE3.0 and DE1.5, steepness of the dosage activity line",[1],2.28
same,TD50,in vivo,0.33 mg/kg
same,selectivity ratio,in vivo,2.75
same,elimination constant,[3],about 0.015 h^-1
same,distribution volume,[2],13.3 kg⁻¹
same,elimination constant,[2],0.01214 h⁻¹
same,excretion in urine,[2],42.8 % of dose
